# Laboratory results reported in US20100286250A1, “FLUORINATED LIPIDS AND METHODS OF USE” (TUFTS UNIVERSITY, priority 2007, published 2010).
# Tested on: HeLa cells
# Experiment: Fluorescence assay of HeLa cells incubated with lipid conjugates (microtiter plate reader)
# Format: cell-based
# Settings: preformed complexes, washed with PBS
# Experimental: General Procedure for Incubation of Cells with Compounds: Cells were cultured in DMEM/RPMI medium supplemented with 10% fetal bovine serum and 1% penicillin/streptomycin. Cells were suspended in phosphate buffered saline (PBS), incubated with an ethanolic solution of lipid conjugates for 1-2 h at 4 or 37° C. to give a final concentration in each well of 0.01-100 μM in a total volume of 100 μL (10% EtOH). After the incubation period, cells were pelleted by centrifugation and washed (2×) and resuspended in 100 μL PBS and analyzed.
# ATP Depletion: Cells were pretreated with 4 mM NaN3/0.8 mM NaF in 100 μL PBS for 30 m at 37° C. The cells were then washed with PBS (2×100 μL) and incubated with 100 μM ethanolic solutions of lipids for 2 h (total volume 100 μL, 10% EtOH). Analysis was carried out as described previously.
# Incubation under Hypertonic Conditions: Cells were pretreated with 0.3 M sucrose for 30 min at 37° C. in PBS, and were then incubated with lipid solutions. Analysis was carried out as described previously.
# Fluorescence Assay: After the incubation period, HeLa cells in PBS were analyzed using an Infinite™ 200 series microtiterplate reader (Tecan Systems, Inc.). All experiments were carried out in 96 well plates with six replicates. The plates were pretreated with 1% BSA for 12 h at 4° C. to minimize non-specific binding.
substance,measurement,value
AF: avidin conjugated to fluorescein isothiocyanate [reference compound],delivery of AF into the cell (microscopy or fluorescence counting),minimally fluorescent
